According to the supplement of paper PMC10307832:

Columns and labels:
Experiment in all cases: relative viability (nuclei count vs DMSO), 5 days (fraction); higher = more cells survive
BEN = tested on: BEN
How it was run: (§1)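 One day after seeding in 1536-well plates, lung cancer cell lines were dosed by pin tool. Dosing was either single-drug or a fixed anchor-drug dose plus five library-drug doses (not always all listed) in √10 steps. After 5 days, nuclei were stained in one fix-and-stain step and counted on 4× images, and relative viability is the nuclei count of treated wells over that of vehicle wells, given as the median of duplicate plates.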

EPLC-272H = tested on: EPLC-272H
How it was run: as §1

HCC-827 = tested on: HCC-827
How it was run: as §1

HOP-62 = tested on: HOP-62
How it was run: as §1

LU99A = tested on: LU99A
How it was run: as §1

NCI-H1355 = tested on: NCI-H1355
How it was run: as §1

NCI-H1666 = tested on: NCI-H1666
How it was run: as §1

NCI-H1792 = tested on: NCI-H1792
How it was run: as §1

NCI-H1975 = tested on: NCI-H1975
How it was run: as §1

NCI-H2170 = tested on: NCI-H2170
How it was run: as §1

NCI-H23 = tested on: NCI-H23
How it was run: as §1

NCI-H2405 = tested on: NCI-H2405
How it was run: as §1

NCI-H3122 = tested on: NCI-H3122
How it was run: as §1

NCI-H322M = tested on: NCI-H322M
How it was run: as §1

NCI-H520 = tested on: NCI-H520
How it was run: as §1

NCI-H596 = tested on: NCI-H596
How it was run: as §1

NCI-H647 = tested on: NCI-H647
How it was run: as §1

NCI-H727 = tested on: NCI-H727
How it was run: as §1

NCI-H838 = tested on: NCI-H838
How it was run: as §1

PC-14 = tested on: PC-14
How it was run: as §1

UMC-11 = tested on: UMC-11
How it was run: as §1

## O=C(O)CCCCC(CCSCc1ccccc1)SCc1ccccc1 (stereo not given) [CPI-613] + CC1(C)CCC(c2ccc(Cl)cc2)=C(CN2CCN(c3ccc(C(=O)NS(=O)(=O)c4ccc(N[C@H](CCN5CCOCC5)CSc5ccccc5)c(S(=O)(=O)C(F)(F)F)c4)cc3)CC2)C1 [Navitoclax] (partner 0.5 µM)
BEN; first compound 5 µM
  relative viability: 0.0595
BEN; first compound 15.81 µM
  relative viability: 0.0465
BEN; first compound 50 µM
  relative viability: 0.0686
BEN; first compound 158.11 µM
  relative viability: 0.0624
BEN; first compound 500 µM
  relative viability: 0.0516
EPLC-272H; first compound 5 µM
  relative viability: 1.24
EPLC-272H; first compound 15.81 µM
  relative viability: 0.897
EPLC-272H; first compound 50 µM
  relative viability: 1.11
EPLC-272H; first compound 158.11 µM
  relative viability: 0.86
EPLC-272H; first compound 500 µM
  relative viability: 0.765
HCC-827; first compound 5 µM
  relative viability: 0.983
HCC-827; first compound 15.81 µM
  relative viability: 0.96
HCC-827; first compound 50 µM
  relative viability: 0.877
HCC-827; first compound 158.11 µM
  relative viability: 0.414
HCC-827; first compound 500 µM
  relative viability: 0.065
HOP-62; first compound 5 µM
  relative viability: 0.927
HOP-62; first compound 15.81 µM
  relative viability: 0.992
HOP-62; first compound 50 µM
  relative viability: 0.978
HOP-62; first compound 158.11 µM
  relative viability: 0.984
HOP-62; first compound 500 µM
  relative viability: 0.911
LU99A; first compound 5 µM
  relative viability: 0.631
LU99A; first compound 15.81 µM
  relative viability: 0.77
LU99A; first compound 50 µM
  relative viability: 0.816
LU99A; first compound 158.11 µM
  relative viability: 0.142
LU99A; first compound 500 µM
  relative viability: 0.0335
NCI-H1355; first compound 5 µM
  relative viability: 0.993
NCI-H1355; first compound 15.81 µM
  relative viability: 0.988
NCI-H1355; first compound 50 µM
  relative viability: 1
NCI-H1355; first compound 158.11 µM
  relative viability: 0.593
NCI-H1355; first compound 500 µM
  relative viability: 0.128
NCI-H1666; first compound 5 µM
  relative viability: 0.944
NCI-H1666; first compound 15.81 µM
  relative viability: 1.16
NCI-H1666; first compound 50 µM
  relative viability: 1.03
NCI-H1666; first compound 158.11 µM
  relative viability: 0.296
NCI-H1666; first compound 500 µM
  relative viability: 0.212
NCI-H1792; first compound 5 µM
  relative viability: 0.518
NCI-H1792; first compound 15.81 µM
  relative viability: 0.595
NCI-H1792; first compound 50 µM
  relative viability: 0.603
NCI-H1792; first compound 158.11 µM
  relative viability: 0.411
NCI-H1792; first compound 500 µM
  relative viability: 0.601
NCI-H1975; first compound 5 µM
  relative viability: 0.988
NCI-H1975; first compound 15.81 µM
  relative viability: 1.1
NCI-H1975; first compound 50 µM
  relative viability: 1.08
NCI-H1975; first compound 158.11 µM
  relative viability: 0.816
NCI-H1975; first compound 500 µM
  relative viability: 0.0403
NCI-H2170; first compound 5 µM
  relative viability: 0.6
NCI-H2170; first compound 15.81 µM
  relative viability: 0.573
NCI-H2170; first compound 50 µM
  relative viability: 0.593
NCI-H2170; first compound 158.11 µM
  relative viability: 0.396
NCI-H2170; first compound 500 µM
  relative viability: 0.0998
NCI-H23; first compound 5 µM
  relative viability: 0.858
NCI-H23; first compound 15.81 µM
  relative viability: 0.711
NCI-H23; first compound 50 µM
  relative viability: 0.801
NCI-H23; first compound 158.11 µM
  relative viability: 0.564
NCI-H23; first compound 500 µM
  relative viability: 0.027
NCI-H2405; first compound 5 µM
  relative viability: 0.929
NCI-H2405; first compound 15.81 µM
  relative viability: 0.796
NCI-H2405; first compound 50 µM
  relative viability: 0.765
NCI-H2405; first compound 158.11 µM
  relative viability: 0.795
NCI-H2405; first compound 500 µM
  relative viability: 0.67
NCI-H3122; first compound 5 µM
  relative viability: 0.992
NCI-H3122; first compound 15.81 µM
  relative viability: 1.06
NCI-H3122; first compound 50 µM
  relative viability: 0.988
NCI-H3122; first compound 158.11 µM
  relative viability: 0.571
NCI-H3122; first compound 500 µM
  relative viability: 0.0262
NCI-H322M; first compound 5 µM
  relative viability: 1.21
NCI-H322M; first compound 15.81 µM
  relative viability: 1.17
NCI-H322M; first compound 50 µM
  relative viability: 1.27
NCI-H322M; first compound 158.11 µM
  relative viability: 1.05
NCI-H322M; first compound 500 µM
  relative viability: 0.982
NCI-H520; first compound 5 µM
  relative viability: 0.932
NCI-H520; first compound 15.81 µM
  relative viability: 1.1
NCI-H520; first compound 50 µM
  relative viability: 1.18
NCI-H520; first compound 158.11 µM
  relative viability: 0.355
NCI-H520; first compound 500 µM
  relative viability: 0.154
NCI-H596; first compound 5 µM
  relative viability: 1.01
NCI-H596; first compound 15.81 µM
  relative viability: 0.925
NCI-H596; first compound 50 µM
  relative viability: 1.11
NCI-H596; first compound 158.11 µM
  relative viability: 0.362
NCI-H596; first compound 500 µM
  relative viability: 0.0344
NCI-H647; first compound 5 µM
  relative viability: 1.05
NCI-H647; first compound 15.81 µM
  relative viability: 1.11
NCI-H647; first compound 50 µM
  relative viability: 0.963
NCI-H647; first compound 158.11 µM
  relative viability: 0.875
NCI-H647; first compound 500 µM
  relative viability: 0.238
NCI-H727; first compound 5 µM
  relative viability: 0.386
NCI-H727; first compound 15.81 µM
  relative viability: 0.337
NCI-H727; first compound 50 µM
  relative viability: 0.331
NCI-H727; first compound 158.11 µM
  relative viability: 0.0645
NCI-H727; first compound 500 µM
  relative viability: 0.046
NCI-H838; first compound 5 µM
  relative viability: 1.12
NCI-H838; first compound 15.81 µM
  relative viability: 1.01
NCI-H838; first compound 50 µM
  relative viability: 1.03
NCI-H838; first compound 158.11 µM
  relative viability: 0.39
NCI-H838; first compound 500 µM
  relative viability: 0.113
PC-14; first compound 5 µM
  relative viability: 1
PC-14; first compound 15.81 µM
  relative viability: 1.05
PC-14; first compound 50 µM
  relative viability: 1
PC-14; first compound 158.11 µM
  relative viability: 0.869
PC-14; first compound 500 µM
  relative viability: 1.16
UMC-11; first compound 5 µM
  relative viability: 0.28
UMC-11; first compound 15.81 µM
  relative viability: 0.324
UMC-11; first compound 50 µM
  relative viability: 0.278
UMC-11; first compound 158.11 µM
  relative viability: 0.143
UMC-11; first compound 500 µM
  relative viability: 0.0935
